These results are taken from patent US20260132132A1, “3A,4,5,6-TETRAHYDRO-1 H-PYRAZOLO[3,4-C]PYRIDIN-7(7AH)-ONE DERIVATIVES AS FACTOR XIIA INHIBITORS” (KALVISTA PHARMACEUTICALS LIMITED, priority 2022, published 2026).

One may read the IC50 as the concentration at which inhibition is half-maximal.

One test deals with FXa (Homo sapiens, UniProt P00742). The experiment in a line: Related protease inhibition: FXa, fluorogenic substrate. The format is biochemical. The conditions noted are these: fluorogenic substrate at Km, 25° C.; H1-H3 = % activity at 40 μM. As to the method: Human serine protease enzyme Plasma Kallikrein, KLK1, FXa, Plasmin, Thrombin and Trypsin were assayed for enzymatic activity using an appropriate fluorogenic substrate at Km concentration, FXIa at fixed substrate concentration of 100 μM and various concentrations of the test compound.

Test [1] addresses T1, Human Factor XIIa (hFXIIa) (Homo sapiens, UniProt P00748).
T1 construct: purchased Enzyme Research Laboratories
T1 sequence (P00748 373-615 limits assumed): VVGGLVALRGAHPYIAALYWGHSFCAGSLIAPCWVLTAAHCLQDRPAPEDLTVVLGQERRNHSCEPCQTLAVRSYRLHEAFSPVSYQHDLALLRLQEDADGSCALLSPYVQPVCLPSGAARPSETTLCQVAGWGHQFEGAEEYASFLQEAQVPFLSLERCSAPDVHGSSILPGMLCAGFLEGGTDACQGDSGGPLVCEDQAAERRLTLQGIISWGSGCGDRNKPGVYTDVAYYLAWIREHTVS
T1 sequence (P00748 20-372 partner limits assumed): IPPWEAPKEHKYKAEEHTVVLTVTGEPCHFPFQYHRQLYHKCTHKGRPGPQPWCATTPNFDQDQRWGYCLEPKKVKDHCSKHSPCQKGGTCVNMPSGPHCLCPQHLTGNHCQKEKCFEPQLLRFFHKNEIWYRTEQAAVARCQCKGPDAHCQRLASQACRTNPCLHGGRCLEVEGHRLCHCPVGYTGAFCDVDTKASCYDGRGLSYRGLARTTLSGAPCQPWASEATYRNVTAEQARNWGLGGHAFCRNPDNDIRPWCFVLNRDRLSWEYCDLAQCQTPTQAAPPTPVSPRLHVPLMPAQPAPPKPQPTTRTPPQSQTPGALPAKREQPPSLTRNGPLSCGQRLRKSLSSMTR
As to the kind of experiment: Determination of Human Factor XIIa (hFXIIa) inhibition, fluorogenic substrate IC50 assay. It is filed as biochemical. The conditions noted are these: fluorogenic substrate H-DPro-Phe-Arg-AFC at Km, 25° C., read-out: Human FXIIa IC50. As to the method: Determination of Human Factor XIIa (hFXIIa) inhibition
The Km for the cleavage of the substrate by hFXIIa was determined by standard transformation of the Michaelis-Menten equation, with subsequent inhibition assays performed at substrate Km concentration.

Chain of FXa (P00742 235-488 limits assumed): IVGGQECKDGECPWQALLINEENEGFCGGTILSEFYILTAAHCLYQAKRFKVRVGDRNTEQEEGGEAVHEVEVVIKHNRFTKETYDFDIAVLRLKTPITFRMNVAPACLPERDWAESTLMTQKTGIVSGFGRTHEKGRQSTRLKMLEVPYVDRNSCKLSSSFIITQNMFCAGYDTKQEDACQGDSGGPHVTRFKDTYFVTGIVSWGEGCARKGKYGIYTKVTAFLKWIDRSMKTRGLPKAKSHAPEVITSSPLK
Chain of FXa (P00742 41-179 partner limits assumed): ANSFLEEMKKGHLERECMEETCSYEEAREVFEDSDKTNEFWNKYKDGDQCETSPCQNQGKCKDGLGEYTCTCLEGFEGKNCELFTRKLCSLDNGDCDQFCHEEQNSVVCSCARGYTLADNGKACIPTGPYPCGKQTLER

`O=C(NCc1cc(C2CC2)n[nH]1)c1nn(-c2cccc(Cl)c2)c2c1CCN(c1ccc3c(c1)CN(CCO)CC3)C2=O` [Example 1127, 1-(3-chlorophenyl)-N-((3-cyclopropyl-1H-pyrazol-5-yl)methyl)-6-(2-(2-hydroxyethyl)-1,2,3,4-tetrahydroisoquinolin-7-yl)-7-oxo-4,5,6,7-tetrahydro-1H-pyrazolo[3,4-c]pyridine-3-carboxamide]: the 50% inhibitory concentration (IC50) at FXa fell in the range of 10000 to 40000 nM; in test [1], 10 to 100 nM.
`Cc1ccncc1CNC(=O)c1nn(-c2cccc(Cl)c2)c2c1CCN(c1ccc3c(c1)C(=O)N(C)[C@@H](CO)CO3)C2=O` [Example 1396, (S)-1-(3-chlorophenyl)-6-(3-(hydroxymethyl)-4-methyl-5-oxo-2,3,4,5-tetrahydrobenzo[f][1,4]oxazepin-7-yl)-N-((4-methylpyridin-3-yl)methyl)-7-oxo-4,5,6,7-tetrahydro-1H-pyrazolo[3,4-c]pyridine-3-carboxamide]: the half-inhibitory concentration (IC50) on FXa is more than 40000 nM; in test [1], 300 to 1000 nM.
With `CCNC(=O)c1nn(-c2cc(C)cc(CN)c2)c2c1CCN(c1ccc3c(c1)C(=O)N(C)CC3)C2=O` [Example 2024, 1-(3-(aminomethyl)-5-methylphenyl)-N-ethyl-6-(2-methyl-1-oxo-1,2,3,4-tetrahydroisoquinolin-7-yl)-7-oxo-4,5,6,7-tetrahydro-1H-pyrazolo[3,4-c]pyridine-3-carboxamide], the results for the IC50 (at FXa; in test [1]) were more than 40000 nM and 10 to 100 nM, respectively.
`Cc1ccncc1CNC(=O)c1nn(-c2cccc(Cl)c2)c2c1CCN(c1ccc3c(c1)CN(CCO)C[C@@H]3C)C2=O` [Example 1148, (R)-1-(3-Chlorophenyl)-6-(2-(2-hydroxyethyl)-4-methyl-1,2,3,4-tetrahydroisoquinolin-7-yl)-N-((4-methylpyridin-3-yl)methyl)-7-oxo-4,5,6,7-tetrahydro-1H-pyrazolo[3,4-c]pyridine-3-carboxamide]: the IC50 on FXa lay in the range of 10000 to 40000 nM; in test [1] it was 100 to 300 nM.
Regarding `Cc1cn(C)nc1C(=O)NCc1nn(-c2cccc(Cl)c2)c2c(=O)n(-c3ccc4c(c3)CN(CCO)CC4)c(C)nc12` [Example 3009, N-[[1-(3-Chlorophenyl)-6-[2-(2-hydroxyethyl)-3,4-dihydro-1H-isoquinolin-7-yl]-5-methyl-7-oxopyrazolo[4,3-d]pyrimidin-3-yl]methyl]-1,4-dimethylpyrazole-3-carboxamide], the concentration for half-maximal inhibition (IC50) is 3000 to 10000 nM on FXa and 300 to 1000 nM in test [1].
Taken in the same sequence, the figures for `CCN1CCc2cnc(N3CCc4c(C(=O)NCC5CC5)nn(-c5cccc(Cl)c5)c4C3=O)cc2C1` [Example 1117, 1-(3-Chlorophenyl)-N-(cyclopropylmethyl)-6-(6-ethyl-5,6,7,8-tetrahydro-2,6-naphthyridin-3-yl)-7-oxo-4,5,6,7-tetrahydro-1H-pyrazolo[3,4-c]pyridine-3-carboxamide] were 10000 to 40000 nM and 100 to 300 nM.
On to `Cc1cccc(CNC(=O)c2nn(-c3cccc(Cl)c3)c3c2CCN(c2ccc4c(c2)CN(CCO)CC4)C3=O)n1` [Example 1139, 1-(3-chlorophenyl)-6-(2-(2-hydroxyethyl)-1,2,3,4-tetrahydroisoquinolin-7-yl)-N-((6-methylpyridin-2-yl)methyl)-7-oxo-4,5,6,7-tetrahydro-1H-pyrazolo[3,4-c]pyridine-3-carboxamide], for which the 50% inhibitory concentration (IC50) against FXa was 10000 to 40000 nM; in test [1] it was 10 to 100 nM.
With `CN1CCc2ccc(N3CCc4c(C(=O)NCCF)nn(-c5cccc(Cl)c5)c4C3=O)cc2C1=O` [Example 1384, 1-(3-chlorophenyl)-N-(2-fluoroethyl)-6-(2-methyl-1-oxo-1,2,3,4-tetrahydroisoquinolin-7-yl)-7-oxo-4,5,6,7-tetrahydro-1H-pyrazolo[3,4-c]pyridine-3-carboxamide], the half-maximal inhibitory concentration (IC50) on FXa was more than 40000 nM; in test [1] it was 300 to 1000 nM.
Regarding `Cc1cc(CNC(=O)c2nn(-c3cccc(Cl)c3)c3c2CCN(c2ccc4c(c2)C(=O)N(C)[C@@H](CO)CO4)C3=O)nn1C` [Example 1395, (S)-1-(3-chlorophenyl)-N-((1,5-dimethyl-1H-pyrazol-3-yl)methyl)-6-(3-(hydroxymethyl)-4-methyl-5-oxo-2,3,4,5-tetrahydrobenzo[f][1,4]oxazepin-7-yl)-7-oxo-4,5,6,7-tetrahydro-1H-pyrazolo[3,4-c]pyridine-3-carboxamide], the IC50 against FXa is more than 40000 nM; in test [1], 1000 to 3000 nM.
For the molecule `CCNC(=O)c1nn(-c2ccc(C)cn2)c2c1CCN(c1ccc3c(c1)C(=O)N(C)CC3)C2=O` [Example 2028, N-ethyl-6-(2-methyl-1-oxo-1,2,3,4-tetrahydroisoquinolin-7-yl)-1-(5-methylpyridin-2-yl)-7-oxo-4,5,6,7-tetrahydro-1H-pyrazolo[3,4-c]pyridine-3-carboxamide], the results for the IC50 (against FXa; in test [1]) were more than 40000 nM and 10000 to 40000 nM, respectively.
For the molecule `CN1CCc2ccc(N3CCc4c(C(=O)NC(C(=O)O)c5cccnc5)nn(-c5cccc(Cl)c5)c4C3=O)cc2C1=O` (centres unmarked) [Example 1328, 2-(1-(3-chlorophenyl)-6-(2-methyl-1-oxo-1,2,3,4-tetrahydroisoquinolin-7-yl)-7-oxo-4,5,6,7-tetrahydro-1H-pyrazolo[3,4-c]pyridine-3-carboxamido)-2-(pyridin-3-yl)acetic acid], the IC50 on FXa is 3000 to 10000 nM; in test [1] it was 300 to 1000 nM.
In the case of `Cc1ccc(CNC(=O)c2nn(-c3cccc(Cl)c3)c3c2CCN(c2ccc4c(c2)C(=O)N(C)CC4)C3=O)nn1` [Example 1267, 1-(3-chlorophenyl)-6-(2-methyl-1-oxo-1,2,3,4-tetrahydroisoquinolin-7-yl)-N-((6-methylpyridazin-3-yl)methyl)-7-oxo-4,5,6,7-tetrahydro-1H-pyrazolo[3,4-c]pyridine-3-carboxamide], the values for the IC50 (on FXa; in test [1]) were more than 40000 nM and 300 to 1000 nM, respectively.
On to `CC(C)N1CCc2ccc(N3CCc4c(C(=O)NCc5ccccc5)nn(-c5cccc(Cl)c5)c4C3=O)cc2C1` [Example 1022, N-benzyl-1-(3-chlorophenyl)-6-(2-isopropyl-1,2,3,4-tetrahydroisoquinolin-7-yl)-7-oxo-4,5,6,7-tetrahydro-1H-pyrazolo[3,4-c]pyridine-3-carboxamide], for which the figures for the concentration for half-maximal inhibition (IC50) (on FXa; in test [1]) were 3000 to 10000 nM and 10 to 100 nM, respectively.
For `CCN1CCOc2ccc(N3CCc4c(C(=O)NCc5cc(C)[nH]n5)nn(-c5cccc(Cl)c5)c4C3=O)cc2C1=O` [Example 1352, 1-(3-chlorophenyl)-6-(4-ethyl-5-oxo-2,3,4,5-tetrahydrobenzo[f][1,4]oxazepin-7-yl)-N-((5-methyl-1H-pyrazol-3-yl)methyl)-7-oxo-4,5,6,7-tetrahydro-1H-pyrazolo[3,4-c]pyridine-3-carboxamide], the figures for the IC50 (against FXa; in test [1]) were 3000 to 10000 nM and 10 to 100 nM, respectively.
As to `COc1cncc(CNC(=O)c2nn(-c3cccc(Cl)c3)c3c2CCN(c2ccc4c(c2)C(=O)N(C)CC4)C3=O)c1` [Example 1213, 1-(3-chlorophenyl)-N-((5-methoxypyridin-3-yl)methyl)-6-(2-methyl-1-oxo-1,2,3,4-tetrahydroisoquinolin-7-yl)-7-oxo-4,5,6,7-tetrahydro-1H-pyrazolo[3,4-c]pyridine-3-carboxamide], the 50% inhibitory concentration (IC50) against FXa is 3000 to 10000 nM; in test [1] it was 100 to 300 nM.
For the molecule `Cc1ccncc1CNC(=O)c1nn(-c2cccc(Cl)c2)c2c(=O)n(-c3ccc4c(c3)CN(CCO)CC4)c(C)nc12` [Example 3011, 1-(3-chlorophenyl)-6-(2-(2-hydroxyethyl)-1,2,3,4-tetrahydroisoquinolin-7-yl)-5-methyl-N-((4-methylpyridin-3-yl)methyl)-7-oxo-6,7-dihydro-1H-pyrazolo[4,3-d]pyrimidine-3-carboxamide], the results for the IC50 (at FXa; in test [1]) were 10000 to 40000 nM and 10 to 100 nM, respectively.
As for `CN1CCc2ccc(N3CCc4c(C(=O)NCc5cc[nH]n5)nn(-c5cccc(Cl)c5)c4C3=O)cc2C1=O` [Example 1245, N-((1H-pyrazol-3-yl)methyl)-1-(3-chlorophenyl)-6-(2-methyl-1-oxo-1,2,3,4-tetrahydroisoquinolin-7-yl)-7-oxo-4,5,6,7-tetrahydro-1H-pyrazolo[3,4-c]pyridine-3-carboxamide], the IC50 is more than 40000 nM on FXa and 100 to 300 nM in test [1].
As to `N#Cc1nn(-c2cccc(Cl)c2)c2c(=O)n(-c3ccc4c(c3)CN(CCO)CC4)cnc12` [Example 3013, 1-(3-chlorophenyl)-6-(2-(2-hydroxyethyl)-1,2,3,4-tetrahydroisoquinolin-7-yl)-7-oxo-6,7-dihydro-1H-pyrazolo[4,3-d]pyrimidine-3-carbonitrile], the IC50 fell in the range of 300 to 1000 nM against FXa and 100 to 300 nM in test [1].
The matching figures for `O=C(Cn1nc(-c2cccc(Cl)c2)c2c1CCN(c1ccc3c(c1)CN(CCO)CC3)C2=O)NCC1CC1` [Example 4002, 2-[3-(3-Chlorophenyl)-5-[2-(2-hydroxyethyl)-3,4-dihydro-1H-isoquinolin-7-yl]-4-oxo-6,7-dihydropyrazolo[4,3-c]pyridin-1-yl]-N-(cyclopropylmethyl) acetamide]: more than 40000 nM and 1000 to 3000 nM.
